Molecular target: Cyclin-T1/Cyclin-dependent kinase 9 (Homo sapiens, UniProt O60563+P50750)
Assay: Inhibition of recombinant full length human N-terminal GST-fused CDK9 (1 to 372 residues)/His-tagged CyclinT1 (1 to 726 residues) expressed in baculovirus infected insect cells using FITC-X-GSRTPMY-NH2 as substrate preincubated for 10 mins followed by MgCl2 addition and measured after 90 mins in presence of 5 mM ATP by mobility shift assay

Chain of Cyclin-T1/Cyclin-dependent kinase 9 (O60563 whole entry, the tested form may be a part): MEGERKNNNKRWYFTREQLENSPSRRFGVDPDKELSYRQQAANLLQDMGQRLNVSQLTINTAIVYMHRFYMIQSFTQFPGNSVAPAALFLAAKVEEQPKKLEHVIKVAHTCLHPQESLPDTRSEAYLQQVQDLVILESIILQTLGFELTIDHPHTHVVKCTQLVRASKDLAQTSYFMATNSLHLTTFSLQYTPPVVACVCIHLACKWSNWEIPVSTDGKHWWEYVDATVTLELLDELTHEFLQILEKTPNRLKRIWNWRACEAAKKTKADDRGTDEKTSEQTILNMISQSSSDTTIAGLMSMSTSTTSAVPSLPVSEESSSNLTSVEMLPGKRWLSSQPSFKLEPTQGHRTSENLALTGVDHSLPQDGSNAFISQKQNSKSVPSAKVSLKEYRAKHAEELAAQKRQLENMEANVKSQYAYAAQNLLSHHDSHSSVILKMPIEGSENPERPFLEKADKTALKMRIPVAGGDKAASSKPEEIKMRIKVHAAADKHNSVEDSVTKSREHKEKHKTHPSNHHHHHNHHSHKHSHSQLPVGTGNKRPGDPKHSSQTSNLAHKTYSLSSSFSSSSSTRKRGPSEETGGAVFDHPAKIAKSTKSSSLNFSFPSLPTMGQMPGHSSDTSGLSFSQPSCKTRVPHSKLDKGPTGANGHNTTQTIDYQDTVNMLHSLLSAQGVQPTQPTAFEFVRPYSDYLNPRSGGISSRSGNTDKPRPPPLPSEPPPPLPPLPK
Chain of Cyclin-T1/Cyclin-dependent kinase 9 (P50750 whole entry, the tested form may be a part): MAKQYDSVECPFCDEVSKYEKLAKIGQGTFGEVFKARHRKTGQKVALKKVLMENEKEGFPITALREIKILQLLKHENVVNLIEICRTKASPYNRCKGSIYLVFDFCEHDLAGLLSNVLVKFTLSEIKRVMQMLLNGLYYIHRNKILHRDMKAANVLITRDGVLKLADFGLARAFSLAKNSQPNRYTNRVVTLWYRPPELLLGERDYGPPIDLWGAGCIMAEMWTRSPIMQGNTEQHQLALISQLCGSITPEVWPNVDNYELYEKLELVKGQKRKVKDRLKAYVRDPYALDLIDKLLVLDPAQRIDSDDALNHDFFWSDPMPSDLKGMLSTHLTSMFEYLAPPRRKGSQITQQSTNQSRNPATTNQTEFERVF

SMILES | IC50
CC(=O)N[C@@H]1CCC[C@H](C(=O)Nc2cc(-c3cnn4c3CC(C)(C)CC4)ccn2)C1 [US10717746, Example 44] | 0.008 µM
CC(=O)N[C@@H]1CCC[C@H](C(=O)Nc2cc(-c3cn[nH]c3CCCCO)c(Cl)cn2)C1 [US10717746, Example 78a] | 0.085 µM
CC(=O)N[C@@H]1CC[C@H](C(=O)Nc2cc(-c3cnn4c3CC(C)(C)C4)c(Cl)cn2)C1 [US10717746, Example 48] | 0.003 µM
CC(=O)N[C@@H]1CCC[C@H](C(=O)Nc2cc(-c3cn[nH]c3CC(C)(C)CO)c(Cl)cn2)C1 [US10717746, Example 82a] | 0.139 µM
CC1(C)Cc2c(-c3cc(NC(=O)[C@H]4C[C@@H](O)C4)ncc3Cl)cnn2C1 [US10717746, Example 27] | 0.025 µM
CC(=O)N[C@@H]1CCC[C@H](C(=O)Nc2cc(-c3cnn4c3CC(C)(C)C4)c(C#N)cn2)C1 [US10717746, Example 39] | 0.062 µM
CC(=O)N[C@@H]1CCC[C@H](C(=O)Nc2cc(-c3cnn4c3CC(C)(C)C4)c(F)cn2)C1 [US10717746, Example 25] | 0.004 µM

Continued, values first:

IC50 | SMILES
0.06 µM | CC(=O)N[C@@H]1CCC[C@H](C(=O)Nc2cc(-c3cnn4c3CCCC4O)c(Cl)cn2)C1 (stereo partly specified) [US10717746, Example 78]
0.051 µM | CC(=O)N[C@@H]1CCC[C@H](C(=O)Nc2cc(-c3cnn4c3CCCC4)c(F)cn2)C1 [US10717746, Example 63]
0.023 µM | CC(=O)N[C@@H]1CCC[C@H](C(=O)Nc2cc(-c3cnn4c3CCCCC4)c(Cl)cn2)C1 [US10717746, Example 66]
0.35 µM | CC(=O)N[C@@H]1CCC[C@H](C(=O)Nc2cc(-c3cnn4c3NCCC4)c(Cl)cn2)C1 [US10717746, Example 15]

— BindingDB's records for doi:10.1021/acs.jmedchem.0c01754 (Astrazeneca, 2020)
